# Test results: US20140193827A1 (TEVA PHARMACEUTICAL INDUSTRIES, LTD., priority 2013, published 2014)
# Tested on: GA-primed murine splenocytes
# Test: Tolerance method for assessing process variability
substance,measurement,setting,value
glatiramer acetate [GA],AVG expression CYHR1,probe ILMN_1228937,8.14
same,AVG expression MSN,probe ILMN_1229193,9.736
same,AVG expression OTTMUSG00000016644,probe ILMN_1229197,7.618
same,AVG expression ECM1,probe ILMN_1229746,6.806
same,AVG expression LTA,probe ILMN_1229804,8.009
same,AVG expression ST7,probe ILMN_1229827,7.737
same,AVG expression FCRLA,probe ILMN_1229840,9.907
same,AVG expression 4933437K13RIK,probe ILMN_1230045,9.824
same,AVG expression TPI1,probe ILMN_1230137,12.52
same,AVG expression BATF2,probe ILMN_1230143,6.446
same,AVG expression CLIC4,probe ILMN_1230546,11.15
same,AVG expression GM336,probe ILMN_1230605,7.6587
same,AVG expression LOC270152,probe ILMN_1231204,8.329
same,AVG expression TPI1,probe ILMN_1231447,7.938
same,AVG expression CCL5,probe ILMN_1231814,8.662
same,AVG expression THADA,probe ILMN_1232235,8.652
same,AVG expression ANK,probe ILMN_1232621,7.123
same,AVG expression MAD,probe ILMN_1232668,7.987
same,AVG expression GBP1,probe ILMN_1233293,11.66
same,AVG expression LOC100045981,probe ILMN_1233402,9.335
same,AVG expression IL2RA,probe ILMN_1233474,8.134
same,AVG expression C530027B15R1K,probe ILMN_1233501,8.684
same,AVG expression CD27,probe ILMN_1233589,8.296
same,AVG expression 1110014O20RIK,probe ILMN_1233987,9.906
same,AVG expression PPP3CC,probe ILMN_1233999,8.724
same,AVG expression SCL0002007.1_97,probe ILMN_1234020,8.904
same,AVG expression TMED8,probe ILMN_1234054,8.518
same,AVG expression IRGM1,probe ILMN_1234539,11.44
same,AVG expression TSPAN2,probe ILMN_1234698,7.426
same,AVG expression IGHA_J00475$V00785_IG_HEAVY—CONSTANT_ALPHA_135,probe ILMN_1234706,7.221
same,AVG expression AI790298,probe ILMN_1234746,6.873
same,AVG expression 4630004K05RIK,probe ILMN_1234973,6.972
same,AVG expression PROS1,probe ILMN_1235499,8.935
same,AVG expression A630072M18RIK,probe ILMN_1235926,8.781
same,AVG expression FCRLA,probe ILMN_1236111,11.88
same,AVG expression RAB11FIP4,probe ILMN_1236245,6.42
same,AVG expression E130302P19RIK,probe ILMN_1236354,7.244
same,AVG expression 5830496L11RIK,probe ILMN_1236507,9.309
same,AVG expression CAR1,probe ILMN_1236588,9.793
same,AVG expression SLC25A19,probe ILMN_1237074,11.68
same,AVG expression DDX25,probe ILMN_1237338,6.532
same,AVG expression IL7R,probe ILMN_1237567,6.244
same,AVG expression PFKP,probe ILMN_1237695,10.66
same,AVG expression AMPD1,probe ILMN_1237871,6.446
same,AVG expression AREG,probe ILMN_1238547,6.514
same,AVG expression C130086J11RIK,probe ILMN_1238725,7.188
same,AVG expression KDH,probe ILMN_1239055,7.064
same,AVG expression KLRE1,probe ILMN_1239346,6.805
same,AVG expression LOC100047934,probe ILMN_1239397,10.17
same,AVG expression 6430510M02RIK,probe ILMN_1239411,8.536
same,AVG expression CEACAM2,probe ILMN_1239472,6.786
same,AVG expression NG23,probe ILMN_1239632,8.463
same,AVG expression KIF1B,probe ILMN_1239729,7.517
same,AVG expression 6030400N17RIK,probe ILMN_1239797,6.341
same,AVG expression PRSS34,probe ILMN_1239878,6.278
same,AVG expression ANXA3,probe ILMN_1241171,8.239
same,AVG expression ADRB2,probe ILMN_1241610,8.974
same,AVG expression TCF7,probe ILMN_1242308,8.261
same,AVG expression CREM,probe ILMN_1242622,8.248
same,AVG expression AKAP8L,probe ILMN_1242769,9.971
same,AVG expression D630014A15RIK,probe ILMN_1242794,8.379
same,AVG expression A130010J15RIK,probe ILMN_1243150,8.875
same,AVG expression 2810410A03RIK,probe ILMN_1243249,10.13
same,AVG expression A130026C10RIK,probe ILMN_1243621,9.03
same,AVG expression B230369L08RIK,probe ILMN_1244343,9.9
same,AVG expression RASGRP2,probe ILMN_1244516,6.8
same,AVG expression LOC100044948,probe ILMN_1244853,11.36
same,AVG expression GBP5,probe ILMN_1244866,9.012
same,AVG expression SYNGR2,probe ILMN_1244874,10.87
same,AVG expression CST7,probe ILMN_1244891,7.709
same,AVG expression F730045P10RIK,probe ILMN_1245300,7.742
same,AVG expression HHEX,probe ILMN_1245731,9.543
same,AVG expression CD84,probe ILMN_1245754,6.93
same,AVG expression SIAT7C,probe ILMN_1246543,8.379
same,AVG expression C78339,probe ILMN_1246895,9.914
same,AVG expression BC004728,probe ILMN_1247198,10.36
same,AVG expression LOC100046770,probe ILMN_1247199,8.329
same,AVG expression IL3,probe ILMN_1247309,9.384
same,AVG expression CGEF2-PENDING,probe ILMN_1247893,8.11
same,AVG expression EMP3,probe ILMN_1248028,10.05
same,AVG expression FASL,probe ILMN_1248413,6.78
same,AVG expression C330023M02RIK,probe ILMN_1248651,8.865
same,AVG expression CD55,probe ILMN_1248714,8.2139
same,AVG expression GATA3,probe ILMN_1248843,8.224
same,AVG expression TBX6,probe ILMN_1249014,6.934
same,AVG expression BCL2,probe ILMN_1249021,8.748
same,AVG expression MPO,probe ILMN_1249030,8.41
same,AVG expression LOC100046608,probe ILMN_1249366,9.365
same,AVG expression TSSC6,probe ILMN_1249740,6.912
same,AVG expression IGF1R,probe ILMN_1249824,6.78
same,AVG expression IGHG,probe ILMN_1249975,8.895
same,AVG expression EIF2AK2,probe ILMN_1250410,10.06
same,AVG expression C730026J16,probe ILMN_1251984,9.459
same,AVG expression LYZ2,probe ILMN_1252076,8.645
same,AVG expression LOC100038894,probe ILMN_1252295,6.989
same,AVG expression WDR9,probe ILMN_1252496,7.625
same,AVG expression ACAT2,probe ILMN_1253008,9.341
same,AVG expression HS3ST1,probe ILMN_1253182,8.805
same,AVG expression DAPP1,probe ILMN_1253354,8.474
same,AVG expression WARS,probe ILMN_1254157,10.36
same,AVG expression NISCH,probe ILMN_1254218,10.29
same,AVG expression 4931429I11RIK,probe ILMN_1254314,6.757
same,AVG expression LMNA,probe ILMN_1254405,8.835
same,AVG expression AI607873,probe ILMN_1254577,7.533
same,AVG expression ACPL2,probe ILMN_1254634,7.573
same,AVG expression SYPL,probe ILMN_1254669,10.85
same,AVG expression EG240327,probe ILMN_1254685,7.154
same,AVG expression LMNA,probe ILMN_1255510,9.57
same,AVG expression IL6RA,probe ILMN_1255743,7.478
same,AVG expression KLRD1,probe ILMN_1255860,8.506
same,AVG expression LOC100047261,probe ILMN_1256219,11.14
same,AVG expression PML,probe ILMN_1256356,10.68
same,AVG expression MCOLN3,probe ILMN_1256430,6.748
same,AVG expression SLC6A12,probe ILMN_1256644,6.942
same,AVG expression LOC100043821,probe ILMN_1257107,10.78
same,AVG expression SLC37A1,probe ILMN_1257444,7.908
same,AVG expression LOC638301,probe ILMN_1257771,9.6
same,AVG expression A130095K04RIK,probe ILMN_1257803,6.146
same,AVG expression D230004N01RIK,probe ILMN_1258197,8.362
same,AVG expression DOK3,probe ILMN_1258357,11.45
same,AVG expression 5430434G16RIK,probe ILMN_1258364,8.61
same,AVG expression LOC100044376,probe ILMN_1258587,9.335
same,AVG expression BC106179,probe ILMN_1258864,7.749
same,AVG expression TMEM66,probe ILMN_1258965,10.41
same,AVG expression NME7,probe ILMN_1259075,8.301
same,AVG expression SCIN,probe ILMN_1259174,9.64
same,AVG expression SFT2D2,probe ILMN_1260046,10.2783
same,AVG expression USP18,probe ILMN_2054914,8.225
same,AVG expression ADCY7,probe ILMN_2163572,8.002
same,AVG expression TNFRSF18,probe ILMN_2419490,11.07
same,AVG expression TNFR5F18,probe ILMN_2419494,10.8
same,AVG expression BRWD1,probe ILMN_2421220,7.59
same,AVG expression UBD,probe ILMN_2426853,8.138
same,AVG expression XBP1,probe ILMN_2431237,12.27
same,AVG expression LOC100048346,probe ILMN_2433990,9.203
same,AVG expression SCL0002069.1_48,probe ILMN_2443164,8.113
same,AVG expression MACF1,probe ILMN_2444984,7.707
same,AVG expression TNFRSF9,probe ILMN_2445789,8.963
same,AVG expression TNFRSF4,probe ILMN_2446559,10.65
same,AVG expression IBRDC3,probe ILMN_2447712,7.79
same,AVG expression MAP4K2,probe ILMN_2449150,9.206
same,AVG expression DUSP4,probe ILMN_2450767,8.696
same,AVG expression 6720418B01RIK,probe ILMN_2454823,7.844
same,AVG expression A830080H07RIK,probe ILMN_2457437,9.842
same,AVG expression MAML2,probe ILMN_2457571,8.504
same,AVG expression AHNAK,probe ILMN_2458765,8.464
same,AVG expression ADAMTSL4,probe ILMN_2459899,8.039
same,AVG expression WNT10A,probe ILMN_2460094,7.099
same,AVG expression BAMBI-PS1,probe ILMN_2467190,7.445
same,AVG expression 1110059G02RIK,probe ILMN_2473692,6.85
same,AVG expression 5830411I20,probe ILMN_2474052,10.05
same,AVG expression CPM,probe ILMN_2476452,6.679
same,AVG expression 1700052O22R1K,probe ILMN_2481117,9.816
same,AVG expression 2210408F11RIK,probe ILMN_2483811,10.42
same,AVG expression 2010005O13RIK,probe ILMN_2488997,9.797
same,AVG expression PKIB,probe ILMN_2490076,7.096
same,AVG expression TRIO,probe ILMN_2491741,6.611
same,AVG expression WISP1,probe ILMN_2492264,6.711
same,AVG expression AA536717,probe ILMN_2492284,6.484
same,AVG expression 2310043N10RIK,probe ILMN_2493030,9.383
same,AVG expression UGT1A10,probe ILMN_2493826,6.49
same,AVG expression 9430080K19RIK,probe ILMN_2500370,10.17
same,AVG expression EG330070,probe ILMN_2504447,6.499
same,AVG expression A130090K04RIK,probe ILMN_2506039,8.137
same,AVG expression 7530404M11RIK,probe ILMN_2507761,7.426
same,AVG expression NME7,probe ILMN_2510694,7.434
same,AVG expression 1110046J11RIK,probe ILMN_2513451,10.16
same,AVG expression 7530408C15RIK,probe ILMN_2517611,7.035
same,AVG expression PLA2G12A,probe ILMN_2518483,6.955
same,AVG expression 2010016118RIK,probe ILMN_2520264,7.54
same,AVG expression 3010031K01RIK,probe ILMN_2522460,9.234
same,AVG expression TRIO,probe ILMN_2522750,8.588
same,AVG expression 4930597A21RIK,probe ILMN_2524763,7.674
same,AVG expression CHI3L4,probe ILMN_2524865,7.454
same,AVG expression LOC240672,probe ILMN_2531737,8.095
